Consider 10 molecules from PMC6599891 (Journal of molecular biology, 2019).

Residue numbers refer to the chain shown, from its start. Names may count otherwise. Read-outs that look alike come from different tables or passages of the source.

Data set [1] has as its target T1, EmrE (Escherichia coli, UniProt P23895, S64V). Briefly: biochemical.
The target in data set [2] is EmrE (Escherichia coli, UniProt P23895, I101G). Briefly: biochemical.
For data set [3], the target named is EmrE (Escherichia coli, UniProt P23895, A59L). In words: biochemical.
Data set [4] has as its target EmrE (Escherichia coli, UniProt P23895, G90V). In words: biochemical.
Data set [5] addresses EmrE (Escherichia coli, UniProt P23895, M21G). In words: biochemical.
In data set [6] the target is EmrE (Escherichia coli, UniProt P23895, N102A). Briefly: biochemical.
The target of data set [7] is EmrE (Escherichia coli, UniProt P23895, N102V). In words: biochemical.
Data set [8] has as its target EmrE (Escherichia coli, UniProt P23895). Briefly: [3H]-TPP+ saturation binding, purified protein in DDM.
Data set [9] concerns the target T1, EmrE. In words: biochemical. This is another data set of the same source.
Data set [10] concerns the molecule itself. In words: 1H-15N TROSY-HSQC NMR (peak doubling of the asymmetric homodimer).

Molecule `C[P+](c1ccccc1)(c1ccccc1)c1ccccc1` [MeTPP^+] had a Kd at EmrE [1] of 60 ± 10 µM.
`c1ccc([P+](c2ccccc2)(c2ccccc2)c2ccccc2)cc1` [TPP^+]: the dissociation constant Kd is 2.6 ± 1.3 nM on EmrE [2]; 23.4 ± 2.4 nM at EmrE [3]; 5.3 ± 0.6 nM on EmrE [4]; 4 ± 0.7 nM at EmrE [5]; 2.3 ± 0.4 nM on EmrE [6]; 1.2 ± 0.2 nM on EmrE [7]. The dissociation constant Kd at EmrE [8] worked out at 0.8 ± 0.1 nM; at EmrE [9], 1 ± 0.6 nM.
`CC[P+](c1ccccc1)(c1ccccc1)c1ccccc1` [EtTPP^+] gave a Kd at EmrE [1] of 11.4 ± 0.1 µM.

B1: wild type EmrE (natural protein)
chain: MNPYIYLGGAILAEVIGTTLMKFSEGFTRLWPSVGTIICYCASFWLLAQTLAYIPTGIAYAIWSGVGIVLISLLSWGFFGQRLDLPAIIGMMLICAGVLIINLLSRSTPH
On to B1, for which the binding result in data set [10] is “binds”.

B2: EmrE A59L (natural protein)
chain: B1 chain with A59L
For the molecule B2, the binding result in [10] was “binds”.

B3: EmrE N102A (natural protein)
chain: B1 chain with N102A
For the molecule B3, the binding result in [10] was “binds”.

B4: EmrE N102V (natural protein)
chain: B1 chain with N102V
In the case of B4, in data set [10], the binding result is on record as “binds”.

B5: S64V-EmrE (natural protein)
chain: B1 chain with S64V
Take B5: the binding result in [10] is “binds”.

B6: EmrE M21G (natural protein)
chain: B1 chain with M21G
On to B6, for which, in data set [10], the binding result is given as “binds”.

B7: EmrE I101G (natural protein)
chain: B1 chain with I101G
Consider B7, for which the binding result in [10] is on record as “binds”.
